The values below come from patent US10519132B2, “Isocorydine derivatives, preparation method and use thereof” (Lanzhou Institute of Chemical Physics, Chinese Academy of …, priority 2017, dated 2019).

As usually defined, the IC50 is the concentration needed to halve the response being measured.

The subject of series [1] is human liver cancer cell strain HepG2. In words: MTT growth inhibition on HepG2.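 Also: adherent cells in 96-well plates treated with a concentration series for 24, 48 or 72 h, MTT absorbance read at 490 nm, inhibition computed relative to untreated control wells.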 Format: cell-based. To be noted: read-out: IC50 HepG2.
Description: (§5) By using an MTT method, a sample solution to be tested was added to a 96-well plate in which cancer cells were adherently grown. Culturing was performed for a certain period, and the growth inhibition effect of a compound on a human cancer cell strain for primary screening was measured to determine the anti-cancer activity of the compound.
(§6) Cell culture: A cell incubator was set to conditions of 37° C., 5% CO2, and a saturated humidity, cells were cultured under these conditions, and the cell medium was a DMEM complete medium, wherein 10% fetal bovine serum, 100 IU/mL penicillin, and 100 μg/mL streptomycin were comprised.
(§7) The single cell suspension was diluted to 5×10^3/100 μL after counting, inoculated on a 96-well cell culture plate (triplicate), and adherently cultured overnight;
(§8) After 24 h of adhesion, the complete medium was discarded, 100 μL-sample-solutions to be tested having different concentrations were sequentially added to the 96-well plate according to a concentration gradient, and incubations were continued for 24 h, 48 h, and 72 h;
(§9) The culture liquid was discarded, a 0.5 mg/mL MTT diluted working liquid was added, and incubation was performed for 4 h by placing in an incubator;
(§10) The culture liquid was discarded, 100 μL of DMSO was added, low-speed oscillation was performed for 10 min by placing on a shaker, and the spectrophotometric value of each well was measured at a wavelength of 490 nm by using a microplate reader. Statistical analysis was performed and tumor cell growth inhibition rate was calculated according to the equation: Growth inhibition rate=(OD value of control group−OD value of experimental group)/OD value of control group.
(§11) Culturing was performed for a certain period, the growth inhibition effect of a compound on 3 human cancer cell strains for primary screening was measured to determine the anti-cancer activity of the compound, and a growth inhibition curve was plotted.
In series [2] the test system is human cervical cancer Hela cell strains. Nature of the series: MTT growth inhibition on Hela.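 Also: compound exposure of 24, 48 or 72 h in DMEM with 10% fetal bovine serum, MTT absorbance read at 490 nm, inhibition calculated relative to control group OD.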
Description: as §5, §6, §7, §8, §9, §10, §11
The test system of series [3] is human gastric cancer cell strain MGC-803. Nature of the series: MTT growth inhibition on MGC-803.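 Also: adherent cells exposed to compound over a concentration gradient for 24, 48 and 72 h, MTT absorbance at 490 nm, inhibition relative to untreated control wells.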
Description: as §5, §6, §7, §8, §9, §10, §11
Series [4] has as its system C-Myc, Ki-67, CylinD1, β-Catenin protein. Nature of the series: Western blotting, protein expression in HepG2 cells. Format: cell-based, human. To be noted: sorafenib 4 μg/mL; for expressions of C-Myc, Ki-67, CylinD1 and β-Catenin protein compared to the blank control group: high COM33 dosage 10.0 μg/mL, combination 4 μg/mL sorafenib+5.0 μg/mL COM33. As for the experimental part:
(§1) Method: Gel electrophoresis of protein samples. Gel formulation: All components were added to a small beaker according to a formulation of a separation gel, uniformly mixed with slightly shaking to prevent the generation of bubbles, quickly applied to a seam of a glass plate with a 1 mL pipette, and then blocked with double distilled water to prevent oxidation. After 30 min, the separation gel solidified, the double distilled water thereof was poured off, waster was suctioned with a filter paper, a 5% concentration gel was formulated, TEMED was finally loaded onto the glass plate, and a 1.0 mm comb was inserted into the concentration gel and placed at room temperature for 30 min. The comb was slightly, vertically, and carefully pulled up, various groups of 20 μL protein samples were pipetted with a microsyringe, an equal volume of a loading buffer and an equal volume of a loading buffer containing 3 μL of Marker were separately added to a loading well, an electrophoresis instrument was switched on after electrodes were plugged, gels were run at 75V for 30 min, and the voltage was changed to 120V and gels were run for 2 h when bromophenol blue reaches the separation gel. Membrane transfer: A PVDF membrane having a suitable size was cut according to the size of the gel, placed in a methanol solution for 1 min, lifted, and placed and soaked together with a well cut filter paper in a previously precooled membrane transfer buffer. A sponge pad, three layers of filter paper, a gel, three layers of filter paper, and a sponge pad, in this order from top to bottom, were placed in a membrane transfer tank, and a precooled membrane transfer buffer was then added. Several ice bags were placed circumferentially to prevent an excessively hot external environment, and electrodes were plugged and membrane transfer was performed at a constant current of […] for 2.5 hours. Blocking and incubation of antibodies: A transferred membrane was cut into desired bands, which were placed in a blocking solution of 5% skim milk powder, placed on a shaker, and shaken at room temperature at a low speed for 1 h. A primary antibody was diluted with the blocking solution, a corresponding antibody was pipetted and added to a zip lock bag, the PVDF membrane was then placed in the antibody dilution, bubbles in the zip lock bag were evacuated, and the zip lock bag was sealed and placed in a refrigerator at 4° C. overnight. The membrane was withdrawn from the zip lock bag on the second day, and placed in a clean dish. A TBST solution was added and washed 3 times on a low-speed shaker, 10 min for each time. […]

Another series has as its system Vimentin. Nature of the series: Western blotting, Vimentin expression in HepG2 cells. Format: cell-based, human. As to the method:
as §1
(A western blot detects proteins with antibodies after separation by electrophoresis.)

In series [5] the test system is ascites hepatoma H22 induced solid tumor. Nature of the series: In vivo tumor growth inhibition in mice bearing H22. Also on record: species or system white Kunming mice. The source says: 1. Tumor strain and animal for experiments: H22 liver cancer cell strain was provided by Teaching and Research Office, School of Basic Medical Sciences, Lanzhou University/Key Lab of Preclinical Study for New Drugs of Gansu Province, and was passage and preserved by periodically intraperitoneal inoculation. White Kunming mice (18.0-22.0 g) were provided by Lanzhou Veterinary Institute, Chinese Academy of Agriculture.
(§2) 2. Establishment of tumor models and method of grouping: a third passage of mice which were well grown 7 d after intraperitoneal inoculation of H22 tumor cells were sacrificed by cervical dislocation, and placed and soaked in 75% alcohol for 10 min. After 3 mL of sterile physiological saline was intraperitoneally injected, milky tumor cell ascites was withdrawn from the abdominal cavity, and formulated into a tumor cell suspension with sterile physiological saline, with a cell number of 1.5×10^7 mL^−1. 80 white Kunming mice were taken, and 0.2 mL of the tumor cell suspension was subcutaneously inoculated to the left axilla of each mouse. 24 h after the inoculation of tumor cells, the mice were divided into 8 groups according to body weights, 10 mice for each group. […] All of the administration manners were intraperitoneal administration.
(§3) 3. Result of experiments: On the second day of modeling, continuous administration was performed for 10 d. Administration was stopped on the 11th d, and mice were sacrificed by cervical dislocation on the next day.
Test method: For the test method, see Example 24. Results can be seen in FIG. 15, FIG. 16, and Table 5.
(§4) Method: Modeling was performed by using the method of establishing H22 white mice tumor-bearing model of Example 24. The in vivo tumor growth inhibition activity of COM33 on H22 model mice was measured in an intraperitoneal injection administration manner.

Series [6] has the same test system. Described as above. Also on record: species or system white Kunming mice. As to conditions: Table 6; low COM33 dosage group (50 mg/Kg), intraperitoneal injection.
In a further series the test system is various HCC. As to conditions: background; read-out: IC50 values, inhibition of tumor growth of various HCC; cited from earlier work.
In series [7] the test system is HepG2 cells. Nature of the series: Apoptosis induction, Annexin V and PI double-staining, flow cytometry. As to conditions: HepG2, 24 h; sorafenib 4 μg/mL; combination 4 μg/mL sorafenib+5 μg/mL FICD. In kind it is cell-based, human. As to the method:
Different concentrations of FICD were added on the second day, culture was continued for 24 h, cells were collected and washed 3 times with precooled PBS, and adherent cells were digested with trypsin free of EDTA. The solutions were combined, centrifuged, and washed 3 times again with precooled PBS. 400 μL of solution containing 5 μL of V-FITC and 10 μL of PI was added, incubation was performed at room temperature under protection from light, and detection was performed by flowcytometry after 30 min.
For orientation: In flow cytometry, cells or beads pass a laser one at a time.

Series [8] relates to HepG2 cells. In words: Cell cycle distribution by flow cytometry. In kind it is cell-based, human. To be noted: sorafenib 5 μg/mL, FICD 10 μg/mL, combination 5 μg/mL FICD+10 μg/mL sorafenib. As to the method:
1 mL of 70% precooled (−20° C.) ethanol was added to the cell precipitate, homogenized by pipetting, and fixed at 4° C. overnight. On the second day, HepG2 cells was collected by centrifugation, 2 mL of precooled PBS was added for washing 3 times, 500 μL of PBS containing 50 μg/mL […] (PI) and 100 μg/mL RNaseA was added, and incubation was performed at 4° C. under protection from light for 30 min. Detection was performed on a flow cytometer, and results can be seen in FIG. 9 and FIG. 10.

Series [9] relates to HepG2 cells. In words: Apoptosis induction by laser confocal scanning microscope. As to conditions: HepG2, 48 h. In kind it is cell-based, human. As to the method: Two solutions (a former one and a later one) were mixed, centrifugation was performed at 1000 r/min for 5 min, the supernatant was discarded, and washing was performed for 3 times with PBS. The cell precipitate was resuspended in Binding Buffer, 10 μL of a FITC-Annen V staining liquid was added, homogenized by pipetting slightly, and reaction was performed under protection from light. PI was added for staining for 15 min, centrifugation was performed, the supernatant was discarded, and washing was performed for 3 times again with PBS. A glass slide was loaded by applying the cell precipitate thereto and mounted with non-fluorescent buffering glycerol, a laser confocal scanning microscope was immediately used for observation and taking photographs at wavelengths of 488 nm and 560 nm. Meanwhile, cells without AnneixnV-FITC and PI added were used as a negative control.

Details of series [10]: species or system white Kunming mice. As to conditions: mouse, in vivo. As for the experimental part: as §2, §3, §4
Series [11] deals with hepatocellular carcinoma in late stages. To be noted: background; cited from earlier work.
The mark [12] stands for this setting: Homo sapiens, HepG2, Table 1, MTT.
Setting [13] is: Homo sapiens, HeLa, read-out: IC50 HeLa, Table 1, MTT.
[14] abbreviates: Homo sapiens, MGC-803, read-out: IC50 MGC-803, Table 1, MTT.
Setting [15] is: Homo sapiens, HepG2, Table 2, MTT.
The mark [16] stands for this setting: COM33 experiment (FIG. 17), combination compared to the sorafenib group.

Read-outs that look alike come from different tables or passages of the source.

For `COc1cc(NC(=O)Nc2ccc(N3CCC(CNC(=O)OC(C)(C)C)CC3)c(C(F)(F)F)c2)c2c(c1O)-c1c(OC)c(OC)cc3c1C(C2)N(C)CC3` (stereo not shown) [Compound 16, 8-[3-trifluoromethyl-4-(4-methylaminoformic acid tert-butyl ester)piperidine]benzoylureido isocorydine], the IC50 in series [1] (setting [12]) is 18.9 µM; in series [2] (setting [13]) it was 22.1 µM; in [3] (setting [14]) it was 23.2 µM.
As for `COc1cc(NC(=O)Nc2ccc(N3CCC(CN)CC3)c(C(F)(F)F)c2)c2c(c1O)-c1c(OC)c(OC)cc3c1[C@H](C2)N(C)CC3` [Compound 17], the IC50 was less than 10 µM in series [1] (setting [12]); 7.51 µM in series [1] (setting [15]); less than 10 µM in series [2] (setting [13]); 6.32 µM in series [2] (Homo sapiens, HeLa, read-out: IC50 Hela, Table 2, MTT); less than 10 µM in [3] (setting [14]); 11.1 µM in [3] (Homo sapiens, MGC-803, read-out: IC50 MGC-803, Table 2, MTT). Moreover, the “expressions of C-Myc, Ki-67, CylinD1 and β-Catenin protein compared to the blank control group” value in [4] is “significantly reduced”. Besides, in the series on Vimentin (setting [16]), the Vimentin expression result is reported as “expressed in all groups”. In addition, the “Tumor inhibition rate (%)” value was determined as 73.8% in [5] (Table 6, high COM33 dosage group (100 g/Kg), intraperitoneal injection) and 27.2% in series [6].
As to `CCC(=O)NCC1CCN(c2ccc(NC(=O)Nc3cc(OC)c(O)c4c3CC3c5c(cc(OC)c(OC)c5-4)CCN3C)cc2C(F)(F)F)CC1` (stereo not shown) [Compound 18, 8-[3-trifluoromethyl-4-(4-methylaminoformic acid propyl ester)-piperidine]benzoylureido isocorydine], the IC50 in [1] (setting [12]) is 10.7 µM; in series [2] (setting [13]), 12.5 µM; in series [3] (setting [14]) it was 10.4 µM.
In the same order, the values of `COc1cc(NC(=O)Nc2ccc(N3CCC(NC(=O)OC(C)(C)C)CC3)c(C(F)(F)F)c2)c2c(c1O)-c1c(OC)c(OC)cc3c1C(C2)N(C)CC3` (stereo not shown) [Compound 19, 8-N-[3′-trifluoromethyl-4′-(4″-aminoformic acid tert-butyl ester-piperidine)-phenyl]-ureido isocorydine] are 25.9 µM, 26.7 µM and 28.7 µM.
In the same order, the values of `COc1cc(NC(=O)Nc2ccc(N3CCC(N)CC3)c(C(F)(F)F)c2)c2c(c1O)-c1c(OC)c(OC)cc3c1C(C2)N(C)CC3` (stereo not shown) [Compound 20, 8-(N-(3′-trifluoromethyl-4′-(4″-amino-piperidine)-phenyl))-ureido-isocorydine] are 18.6 µM, 13.7 µM and 22.3 µM.
As to `COc1ccc2c(c1O)-c1c(OC)c(OC)cc3c1[C@H](C2)N(C)CC3` [ICD, isocorydine], the IC50 in series [1] (setting [15]) is 569 µM; in the series on various HCC, greater than 200 µM; in [2] (Homo sapiens, HeLa, read-out: IC50 HeLa), 581 µM; in series [3] (Homo sapiens, MGC-803, read-out: IC50 MGC-803), 388 µM.
Turning to `CNC(=O)c1cc(Oc2ccc(NC(=O)Nc3ccc(Cl)c(C(F)(F)F)c3)cc2)ccn1` [Sorafenib, reference compound], in the series on HepG2 cells [7], the apoptosis rate came out at 29.33%. The “cell cycle distribution compared to the blank control group” value with HepG2 cells [8] is “cells significantly increased in the G0/G1 phase of the cell cycle and significantly decreased in the S phase”. Besides, in the series with HepG2 cells [9], the “apoptosis and cell morphology, Anneixn V-FITC and PI double-staining” value is reported as “apoptoses occurred during various phases”. In [4], the “expressions of C-Myc, Ki-67, CylinD1 and β-Catenin protein compared to the blank control group” value is on record as “significantly reduced”. Also, in [4] (high FICD dosage 20 μg/mL, combination 4 μg/mL sorafenib+10 μg/mL FICD), the “expressions of C-Myc, Ki-67, CylinD1 and β-Catenin protein compared to the blank group” value is recorded as “significantly reduced”. Moreover, the Vimentin expression entry with Vimentin (setting [16]) is “expressed in all groups”; in the series with Vimentin (FICD experiment (FIG. 12)), “significantly increased”. For the same molecule, the “Tumor inhibition rate (%)” value in [5] (Table 4, sorafenib 50 mg/Kg, intraperitoneal, 10 d) was 55.8%; in [5] (Table 6, sorafenib 50 mg/Kg, intraperitoneal injection), 56.5%. For the same molecule, in series [10], the “toxic and side effects on increased dosage” value was “toxic and side effects of sorafenib would obviously occur, resulting in death of experimental animals”. Besides, the “elongation of overall survival time of an HCC patient” value in [11] is 2 months.
With `COC1=CC(=O)c2cc3c4c(cc(OC)c(OC)c4c2C1=O)CCN3C` [TICD, isocorydione, reference compound], the IC50 turned out to be 40 µM in [1] (Table 2, MTT); 31.3 µM in series [2] (read-out: IC50 Hela, Table 2, MTT); 49.6 µM in series [3] (read-out: IC50 MGC-803, Table 2, MTT).
